Results on 34 compounds are retold here after ChEMBL document CHEMBL3414492, “Enhancing the cellular anti-proliferation activity of pyridazinones as c-met inhibitors using docking analysis” (Eur J Med Chem, 2015).

Active and inactive are the calls of the source. No cut-off for these calls is given here.

Experiment [1] has as its system EBC-1. Nature of the experiment: (§1) Inhibition of cell proliferation of human EBC1 cells at 10 uM after 72 hrs by SRB assay. Type of experiment: functional.
Experiment [2] can be described thus: Inhibition of cell proliferation of human EBC1 cells after 72 hrs by SRB assay. The settings on record: EBC-1, 72 h.
Experiment [3] can be described thus: Inhibition of cell proliferation of human MKN45 cells after 72 hrs by SRB assay. The settings on record: MKN-45, 72 h. On the technique in general: The SRB assay estimates cell density from bound dye.
The nature of experiment [4]: Inhibition of cell proliferation of human SNU5 cells after 72 hrs by SRB assay. The settings on record: SNU-5, 72 h.
In another experiment the test system is NCI-H661. Nature of the experiment: Inhibition of cell proliferation of human NCI-H661 cells after 72 hrs by SRB assay. The settings on record: NCI-H661, 72 h.
A further experiment has as its system SNU1. Kind of experiment: Inhibition of cell proliferation of human SNU1 cells after 72 hrs by SRB assay. The settings on record: SNU1, 72 h.
In experiment [5] the target is T1, Hepatocyte growth factor receptor (Homo sapiens, UniProt P08581). Kind of experiment: Inhibition of recombinant c-Met (unknown origin) using poly (Glu,Tyr)4:1 substrate incubated for 60 mins by ELISA method. Background: ELISA stands for enzyme-linked immunosorbent assay.
For experiment [6], the target named is T1, Hepatocyte growth factor receptor. Nature of the experiment: Inhibition of recombinant c-Met (unknown origin) at 10 uM using poly (Glu,Tyr)4:1 substrate incubated for 60 mins by ELISA method.
Experiment [7] has the same target. Kind of experiment: Inhibition of c-Met (unknown origin).
Experiment [8] can be described thus: Inhibition of cell proliferation of human EBC1 cells at 1 uM after 72 hrs by SRB assay. The settings on record: EBC-1, 72 h, read-out: INH.
A short description of experiment [9]: as §1. Type of experiment: functional. The settings on record: EBC-1, 72 h.
In experiment [10] the test system is EBC-1. The settings on record: Homo sapiens, 1 uM.

As for `Cc1ccccc1Nc1ccc(=O)n(Cc2cccc(NC(=O)OCCCCN(C)C)c2)n1`, in the experiment with EBC-1 [1], the inhibition entry was “inactive”.
Same read-out and setting: then `CN(C)CCCCOC(=O)Nc1cccc(Cn2nc(Nc3ccccc3F)ccc2=O)c1`, with “inactive”.
In the case of `O=C(Nc1cccc(Cn2nc(-n3ccc4ccc(F)cc43)ccc2=O)c1)OCCCCn1cccn1`, in experiment [2], the IC50 (as a rule, the concentration that inhibits the measured activity by half) is not above 1000 nM.
Take `CN1CCN(CCCOC(=O)Nc2cccc(Cn3nc(-n4ccc5ccc(F)cc54)ccc3=O)c2)CC1`: the IC50 was 700 nM in [3]; 1200 nM in [4]; 1600 nM in the experiment on NCI-H661; 3.9 µM in the experiment on SNU1; not above 100 nM in [2].
For `COCCOc1ccc2c(OCCn3nc(-n4ccc5ccc(F)cc54)ccc3=O)ccnc2c1`, the half-inhibitory concentration (IC50) in experiment [2] was 21.1 nM.
In the case of `Cc1ccccc1Nc1ccc(=O)n(Cc2ccc(NC(=O)OCCCCN(C)C)cc2)n1`, the concentration for half-maximal inhibition (IC50) in experiment [5] is more than 10 µM.
As to `CN(C)CCCCOC(=O)Nc1cccc(Cn2nc(Nc3ccccc3)ccc2=O)c1`, in the experiment on EBC-1 [1], the inhibition entry is “inactive”. In [2], the IC50 was more than 10000 nM.
With `Cc1cccc(Nc2ccc(=O)n(Cc3cccc(NC(=O)OCCCCN(C)C)c3)n2)c1`, the inhibition entry in the experiment on EBC-1 [1] is “inactive”.
For the compound `CN(C)CCCOC(=O)Nc1cccc(Cn2nc(-n3ccc4ccc(F)cc43)ccc2=O)c1`, the 50% inhibitory concentration (IC50) in [2] was not above 1000 nM.
Take `CN(C)CCCCOC(=O)Nc1cccc(Cn2nc(Nc3ccccc3C(F)(F)F)ccc2=O)c1`: the inhibition in experiment [6] stood at 63.4%. Besides, the inhibition result with EBC-1 [1] was “inactive”.
`CN1CCN(CCOc2cnc(-c3cccc(Cn4nc(-n5ccc6ccc(F)cc65)ccc4=O)c3)nc2)CC1` had an IC50 in [2] of 130 nM.
Take `CN(C)CCCCOC(=O)Nc1cccc(Cn2nc(Nc3cccc(F)c3)ccc2=O)c1`: the inhibition entry in the experiment with EBC-1 [1] was “inactive”.
On to `CN(C)CCCCOC(=O)Nc1cccc(Cn2nc(Nc3ccc(F)cc3)ccc2=O)c1`, for which the inhibition result with EBC-1 [1] was “inactive”.
In experiment [7], `Nc1ccc(Cn2nc(Nc3ccccc3)ccc2=O)cc1` registered an IC50 of 10 µM.
With `CN(C)CCOC(=O)Nc1cccc(Cn2nc(-n3ccc4ccc(F)cc43)ccc2=O)c1`, in experiment [2], the IC50 is not above 1000 nM.
On to `O=c1ccc(-n2ccc3ccc(F)cc32)nn1Cc1cccc(-c2ncc(OCCN3CCOCC3)cn2)c1`, for which, in experiment [2], the IC50 was found to be 124 nM.
Take `O=C(Nc1cccc(Cn2nc(-n3ccc4ccc(F)cc43)ccc2=O)c1)OCCCCN1CCOCC1`: the IC50 in [2] is not above 1000 nM.
Regarding `CN1CCN(CCCOc2cnc(-c3cccc(Cn4nc(-n5ccc6ccc(F)cc65)ccc4=O)c3)nc2)CC1`, the IC50 in experiment [2] came out at 198 nM.
`CN(C)CCCCOC(=O)Nc1cccc(Cn2nc(Nc3cc(F)cc(F)c3)ccc2=O)c1`: the inhibition entry in the experiment with EBC-1 [1] is “inactive”.
In experiment [2], `COC(=O)CCCCOC(=O)Nc1cccc(Cn2nc(-n3ccc4ccc(F)cc43)ccc2=O)c1` gave an IC50 of more than 10000 nM.
Same read-out and setting: then `CN(C)CCOCCOC(=O)Nc1cccc(Cn2nc(-n3ccc4ccc(F)cc43)ccc2=O)c1`, with not above 1000 nM.
For `Cc1ccc(Nc2ccc(=O)n(Cc3cccc(NC(=O)OCCCCN(C)C)c3)n2)cc1`, the inhibition in experiment [6] came out at 55.5%. In addition, in the experiment with EBC-1 [1], the inhibition result was “inactive”.
Turning to `CN(C)CCCCOC(=O)Nc1cccc(Cn2nc(Nc3cccc(C(F)(F)F)c3)ccc2=O)c1`, the inhibition result in the experiment on EBC-1 [1] is “inactive”.
On the same count and under the same terms, then `CN(C)CCCCOC(=O)Nc1cccc(Cn2nc(Nc3cccc(Cl)c3)ccc2=O)c1`, with “inactive”.
Regarding `CN(C)CCCCOC(=O)Nc1cccc(Cn2nc(-n3ccc4ccc(F)cc43)ccc2=O)c1`, the half-maximal inhibitory concentration (IC50) in [2] was not above 1000 nM.
Regarding `CCOC(=O)Nc1cccc(Cn2nc(-n3ccc4ccc(F)cc43)ccc2=O)c1`, the IC50 in [5] was more than 10 µM.
Take `CN(C)CCCCOC(=O)Nc1cccc(Cn2nc(Nc3ccc(C(F)(F)F)cc3)ccc2=O)c1`: in the experiment on EBC-1 [1], the inhibition entry was “inactive”.
As for `Cc1ccccc1Nc1ccc(=O)n(Cc2ccccc2NC(=O)OCCCCN(C)C)n1`, the IC50 in experiment [5] is more than 10 µM.
In turn, `COCCCOc1cnc(-c2cccc(Cn3nc(-n4ccc5ccc(F)cc54)ccc3=O)c2)nc1` showed an IC50 in [2] of 272 nM.
`CN1CCN(CCCCCOC(=O)Nc2cccc(Cn3nc(-n4ccc5ccc(F)cc54)ccc3=O)c2)CC1` came in with an IC50 in [2] not above 1000 nM.
As to `CN1CCN(CCCCOC(=O)Nc2cccc(Cn3nc(-n4ccc5ccc(F)cc54)ccc3=O)c2)CC1`, in experiment [2], the IC50 is not above 100 nM.
Take `CN(C)CCCCOC(=O)Nc1cccc(Cn2nc(-n3ccc4ccccc43)ccc2=O)c1`: the inhibition at 1 µM in [8] is less than 50%. Also, the inhibition at 10 µM in [9] was more than 70%.
In turn, `CN(C)CCCCCOC(=O)Nc1cccc(Cn2nc(-n3ccc4ccc(F)cc43)ccc2=O)c1` came in with an IC50 in [2] not above 100 nM.
On to `COc1cnc(-c2cccc(Cn3nc(-n4ccc5ccc(F)cc54)ccc3=O)c2)nc1`, for which the inhibition result in the experiment on EBC-1 [10] was “inactive”. Besides, the IC50 in [2] is more than 1000 nM.
